IC50 and solubility data for 36 molecules are collected here from patent US20220380314A1, “SUBSTITUTED, SATURATED AND UNSATURATED N-HETEROCYCLIC CARBOXAMIDES AND RELATED COMPOUNDS FOR THEIR USE IN THE TREATMENT OF MEDICAL DISORDERS” (Bial - R&D Investments, S.A., priority 2019, published 2022).

Structures are written as SMILES. Converted amounts (≈) assume the structure as drawn. Where a name gives a salt, the structure may show the parent alone. A value given as a limit tells only on which side of the number the result lay.

As a reminder, the IC50 is the concentration that gives 50% inhibition. Usually solubility stands for the concentration that dissolves in the medium under given conditions. Low readings indicate little dissolved substance, high ones much dissolved substance.

The first data set has as its target T1, acid ceramidase (hACR) (Homo sapiens, UniProt Q13510).
T1 construct: expressed in transfected cells; cell lysate used
T1 sequence (Q13510 143-395 limits assumed): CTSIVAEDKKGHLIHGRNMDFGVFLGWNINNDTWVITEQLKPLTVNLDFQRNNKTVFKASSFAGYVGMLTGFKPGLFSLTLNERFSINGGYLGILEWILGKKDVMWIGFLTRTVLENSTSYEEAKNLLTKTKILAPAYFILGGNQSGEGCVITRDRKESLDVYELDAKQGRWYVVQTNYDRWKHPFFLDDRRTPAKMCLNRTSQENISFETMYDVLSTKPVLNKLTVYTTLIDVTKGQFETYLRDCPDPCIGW
T1 sequence (Q13510 22-142 limits assumed): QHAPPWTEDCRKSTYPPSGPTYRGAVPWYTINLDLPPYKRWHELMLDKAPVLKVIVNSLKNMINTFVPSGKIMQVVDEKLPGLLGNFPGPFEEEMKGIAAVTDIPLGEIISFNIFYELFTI
As to the kind of experiment: Acid ceramidase inhibition, biochemical fluorescent assay with cell lysates overexpressing acid ceramidase, substrate Rbm14-12. Conditions: cell lysates overexpressing acid ceramidase; 1 hr preincubation at RT; pH 4.5; substrate Rbm14-12 6.3 μM; read-out: hACR IC50. The procedure:
The ability of exemplary compounds to inhibit acid ceramidase was measured.
Cell lysates overexpressing acid ceramidase were used as the enzyme source for compound potency determination in a biochemical fluorescent assay. Briefly, compounds were preincubated with 10 µg protein of cell lysates in a dose-response manner for 1 hr at RT in the assay buffer containing 25 mM NaAC and 100 mM NaCl, pH 4.5. The reaction was initiated by the addition of substrate Rbm14-12 at a final concentration of 6.3 μM. The reaction was run at RT for 1 hr before it was stopped by the addition of the stopping buffer containing 20% methanol (v/v), 1 mg/ml NaIO4, 0.1 M glycine, pH 10.6. The samples were incubated with the stopping buffer at RT for 1 hr to allow the fluorescent product to be formed. Finally the plate was read with SpectraMax i3 plate reader (Molecular Devices) at ex360 nm and em446 nm. Data were collected and used to determine the IC50 values of compounds by curve fitting to the four-parameter inhibition equation.
The symbol “A” indicates inhibition of less than 0.2 μM; the symbol “B” indicates inhibition in the range of 0.2 μM up to 1 μM; and the symbol “C” indicates inhibition of greater than 1 μM.
Turning to `CN1CCC(c2ccc3c(c2)N(C(=O)NCCc2ccccc2)C(C)(C)CC3)CC1` [Example 1, 2,2-Dimethyl-7-(1-methylpiperidin-4-yl)-N-phenethyl-3,4-dihydroquinoline-1(2H)-carboxamide], the 50% inhibitory concentration (IC50) was in the range of 200 to 1000 nM.

As to `CN1CCC(c2cccc3c2CCC(C)(C)N3C(=O)NCCc2ccccc2)CC1` [Example 2, 2,2-Dimethyl-5-(1-methylpiperidin-4-yl)-N-phenethyl-3,4-dihydroquinoline-1(2H)-carboxamide], the concentration for half-maximal inhibition (IC50) is less than 200 nM.

Consider `CN1CCC(c2ccc3c(c2)N(C(=O)NCCc2ccccc2)CCC3)CC1` [Example 3, 7-(1-Methylpiperidin-4-yl)-N-phenethyl-3,4-dihydroquinoline-1(2H)-carboxamide], for which the half-maximal inhibitory concentration (IC50) was greater than 1000 nM.

In the case of `CCCCCNC(=O)N1CC(Cc2ccccc2)C(N2CCCCC2)CC1(C)C` (stereo not drawn) [Example 127, 5-Benzyl-2,2-dimethyl-N-pentyl-4-(1-piperidyl)piperidine-1-carboxamide], the IC50 was less than 200 nM.

For `CC1(C)CC(N2CCCCC2)/C(=C/c2ccccc2)CN1C(=O)NCCCCc1ccccc1` (stereo not drawn) [Example 128, (5E)-5-Benzylidene-2,2-dimethyl-N-(4-phenylbutyl)-4-(1-piperidyl)piperidine-1-carboxamide], the IC50 was less than 200 nM.

Regarding `CC1(C)CC(N2CCCCC2)/C(=C/c2ccccc2)CN1C(=O)NCCc1ccccc1` (stereo not drawn) [Example 129, (5E)-5-Benzylidene-2,2-dimethyl-N-(2-phenylethyl)-4-(1-piperidyl)piperidine-1-carboxamide], the IC50 lay within 200 to 1000 nM.

Consider `CCCCCNC(=O)N1C/C(=C\c2ccccc2)C(N2CCCCC2)CC1(C)C` (stereo not drawn) [Example 130, (5E)-5-Benzylidene-2,2-dimethyl-N-pentyl-4-(1-piperidyl)piperidine-1-carboxamide], for which the IC50 was less than 200 nM.

For `CCCCCNC(=O)N1CC(c2ccccc2)C(N2CCCCC2)CC1(C)C` (stereo not drawn) [Example 131, 2,2-Dimethyl-N-pentyl-5-phenyl-4-(1-piperidyl)piperidine-1-carboxamide], the half-maximal inhibitory concentration (IC50) is less than 200 nM.

For the molecule `CC1(C)COCC(c2ccccc2)N1C(=O)NCCCCc1ccccc1` (stereo not drawn) [Example 133, 3,3-Dimethyl-5-phenyl-N-(4-phenylbutyl)morpholine-4-carboxamide], the IC50 is less than 200 nM.

For the molecule `CCCCCCCNC(=O)N1C(c2ccccc2)COCC1(C)C` (stereo not drawn) [Example 134, N-Heptyl-3,3-dimethyl-5-phenylmorpholine-4-carboxamide], the IC50 is less than 200 nM.

For the molecule `CC1(C)COCC(c2ccccc2)N1C(=O)NC1CCCCC1` (stereo not drawn) [Example 135, N-Cyclohexyl-3,3-dimethyl-5-phenylmorpholine-4-carboxamide], the half-inhibitory concentration (IC50) fell in the range of 200 to 1000 nM.

`CC1(C)COCC(c2ccc(F)cc2)N1C(=O)NCCCCc1ccccc1` (stereo not drawn) [Example 136, 5-(4-Fluorophenyl)-3,3-dimethyl-N-(4-phenylbutyl)morpholine-4-carboxamide]: the IC50 is less than 200 nM.

On to `CC(C)CNC(=O)N1C(c2ccc(F)cc2)COCC1(C)C` (stereo not drawn) [Example 140, 5-(4-Fluorophenyl)-N-isobutyl-3,3-dimethylmorpholine-4-carboxamide], for which the IC50 is less than 200 nM.

As to `CCCCCNC(=O)N1[C@@H](C)COC[C@H]1c1ccc(F)cc1` [Example 141, (3R,5S)-3-(4-Fluorophenyl)-5-methyl-N-pentylmorpholine-4-carboxamide], the IC50 was 200 to 1000 nM.

`CCCCCNC(=O)N1[C@H](C)COC[C@@H]1c1ccc(F)cc1` [Example 142, (3S,5R)-3-(4-Fluorophenyl)-5-methyl-N-pentylmorpholine-4-carboxamide]: the IC50 lay within 200 to 1000 nM.

Regarding `COc1ccc(C2COCC(C)(C)N2C(=O)NCC(C)C)cc1` (stereo not drawn) [Example 143, N-iso-Butyl-5-(4-methoxyphenyl)-3,3-dimethylmorpholine-4-carboxamide], the IC50 is less than 200 nM.

As for `COc1ccc(C2COCC(C)(C)N2C(=O)NCCC2CC2)cc1` (stereo not drawn) [Example 146, N-(2-Cyclopropylethyl)-5-(4-methoxyphenyl)-3,3-dimethylmorpholine-4-carboxamide], the IC50 was less than 200 nM.

In the case of `COc1ccc(C2COCC(C)(C)N2C(=O)NCCC(C)C)cc1` (stereo not drawn) [Example 147, N-iso-Pentyl-5-(4-methoxyphenyl)-3,3-dimethylmorpholine-4-carboxamide], the half-maximal inhibitory concentration (IC50) is less than 200 nM.

Consider `COc1ccc(C2COCC(C)(C)N2C(=O)NCCc2ccc(F)cc2)cc1` (stereo not drawn) [Example 148, N-[2-(4-Fluorophenyl)ethyl]-5-(4-methoxyphenyl)-3,3-dimethylmorpholine-4-carboxamide], for which the half-inhibitory concentration (IC50) was less than 200 nM.

Consider `COc1ccc(C2COCC(C)(C)N2C(=O)NCCCCC2CC2)cc1` (stereo not drawn) [Example 149, N-(4-Cyclopropylbutyl)-5-(4-methoxyphenyl)-3,3-dimethylmorpholine-4-carboxamide], for which the half-inhibitory concentration (IC50) was less than 200 nM.

As for `COc1ccc(C2COCC(C)(C)N2C(=O)NCC2CCCCC2)cc1` (stereo not drawn) [Example 150, N-(Cyclohexylmethyl)-5-(4-methoxyphenyl)-3,3-dimethylmorpholine-4-carboxamide], the IC50 was less than 200 nM.

Consider `COc1ccc(C2COCC(C)(C)N2C(=O)NCc2ccc(F)cc2)cc1` (stereo not drawn) [Example 151, N-[(4-Fluorophenyl)methyl]-5-(4-methoxyphenyl)-3,3-dimethylmorpholine-4-carboxamide], for which the IC50 is less than 200 nM.

Turning to `COc1ccc(C2COCC(C)(C)N2C(=O)NCC(F)(F)F)cc1` (stereo not drawn) [Example 152, 5-(4-Methoxyphenyl)-3,3-dimethyl-N-(2,2,2-trifluoroethyl)morpholine-4-carboxamide], the IC50 was greater than 1000 nM.

With `CCCCCNC(=O)N1C(c2ccccc2C)COCC1(C)C` (stereo not drawn) [Example 158, 3,3-Dimethyl-5-(o-tolyl)-N-pentylmorpholine-4-carboxamide], the IC50 was less than 200 nM.

For `CCCCCNC(=O)N1C(c2ccc(OC)nc2)COCC1(C)C` (stereo not drawn) [Example 159, 5-(6-Methoxy-3-pyridyl)-3,3-dimethyl-N-pentylmorpholine-4-carboxamide], the IC50 is less than 200 nM.

Turning to `CCCCCNC(=O)N1C(c2ccc(OC)cc2F)COCC1(C)C` (stereo not drawn) [Example 160, 5-(2-Fluoro-4-methoxyphenyl)-3,3-dimethyl-N-pentylmorpholine-4-carboxamide], the IC50 was less than 200 nM.

Consider `CCCCCNC(=O)N1C(c2ccc(OC)c(F)c2)COCC1(C)C` (stereo not drawn) [Example 161, 5-(3-Fluoro-4-methoxyphenyl)-3,3-dimethyl-N-pentylmorpholine-4-carboxamide], for which the half-maximal inhibitory concentration (IC50) was less than 200 nM.

Consider `CCCCCNC(=O)N1C(c2ccc(F)c(F)c2)COCC1(C)C` (stereo not drawn) [Example 162, 5-(3,4-Difluorophenyl)-3,3-dimethyl-N-pentylmorpholine-4-carboxamide], for which the IC50 was less than 200 nM.

On to `CCCCCNC(=O)N1C(c2ccc(F)c(OC)c2)COCC1(C)C` (stereo not drawn) [Example 163, 5-(4-Fluoro-3-methoxyphenyl)-3,3-dimethyl-N-pentylmorpholine-4-carboxamide], for which the concentration for half-maximal inhibition (IC50) was less than 200 nM.

Turning to `CC1(C)CN(C(=O)OCc2ccccc2)CC(c2ccccc2)N1C(=O)NCCCCc1ccccc1` (stereo not drawn) [Example 164, Benzyl 3,3-dimethyl-5-phenyl-4-(4-phenylbutylcarbamoyl)piperazine-1-carboxylate], the half-inhibitory concentration (IC50) is greater than 1000 nM.

In the case of `CN1CC(C)(C)N(C(=O)NCCCCc2ccccc2)CC1c1ccccc1` (stereo not drawn) [Example 166, 2,2,4-Trimethyl-5-phenyl-N-(4-phenylbutyl)piperazine-1-carboxamide], the 50% inhibitory concentration (IC50) is less than 200 nM.

For the molecule `CCCCCNC(=O)N1C(c2ccc(F)cc2)CN(C)CC1(C)C` (stereo not drawn) [Example 167, 6-(4-Fluorophenyl)-2,2,4-trimethyl-N-pentylpiperazine-1-carboxamide hydrochloride], the IC50 is less than 200 nM.

With `CN1CC(c2ccc(F)cc2)N(C(=O)NCCOCC2CC2)C(C)(C)C1` (stereo not drawn) [Example 168, N-[2-(Cyclopropylmethoxy)ethyl]-6-(4-fluorophenyl)-2,2,4-trimethylpiperazine-1-carboxamide hydrochloride], the half-inhibitory concentration (IC50) was less than 200 nM.

On to `CC1(C)CN(C2CC2)CC(c2ccccc2)N1C(=O)NCCCCc1ccccc1` (stereo not drawn) [Example 169, 4-Cyclopropyl-2,2-dimethyl-6-phenyl-N-(4-phenylbutyl)piperazine-1-carboxamide], for which the IC50 was less than 200 nM.

Tested on in the next data set: not listed separately
As to the kind of experiment: Compound solubility in water. The data set is classed as physicochemical.
Settings: not given
Molecule `CN1CCC(c2ccc3c(c2)N(C(=O)NCCc2ccccc2)C(C)(C)CC3)CC1` [Example 1, 2,2-Dimethyl-7-(1-methylpiperidin-4-yl)-N-phenethyl-3,4-dihydroquinoline-1(2H)-carboxamide] showed a solubility of 33.2 µM (≈ 13.5 µg/mL).

Take `CN1CCC(c2cccc3c2CCC(C)(C)N3C(=O)NCCc2ccccc2)CC1` [Example 2, 2,2-Dimethyl-5-(1-methylpiperidin-4-yl)-N-phenethyl-3,4-dihydroquinoline-1(2H)-carboxamide]: the solubility was determined as 36.5 µM (≈ 14.8 µg/mL).

Turning to `CN1CCC(c2ccc3c(c2)N(C(=O)NCCc2ccccc2)CCC3)CC1` [Example 3, 7-(1-Methylpiperidin-4-yl)-N-phenethyl-3,4-dihydroquinoline-1(2H)-carboxamide], the solubility worked out at 38.7 µM (≈ 14.6 µg/mL).

Turning to `COCCNC(=O)N1c2ccccc2CCC1(C)C` [Example 32, N-(2-Methoxyethyl)-2,2-dimethyl-3,4-dihydroquinoline-1(2H)-carboxamide], the concentration in solution (solubility) was 28.7 µM (≈ 7.53 µg/mL).

Turning to `COC1CCN(C(=O)NCCc2ccccc2)C(C)(C)C1` (stereo not drawn) [Example 36, 4-Methoxy-2,2-dimethyl-N-phenethylpiperidine-1-carboxamide], the concentration in solution (solubility) was 33.4 µM (≈ 9.7 µg/mL).
